SMILES strings stand for the structures.

Broadly, the IC50 is the concentration that inhibits the measured activity by half.

The target of assay [1] is T1, ERK2 (Homo sapiens, UniProt P28482).
T1 construct: made in house
Put plainly: ERK2 Rapidfire Mass Spectrometry Inhibition of Catalysis Assay. As to conditions: 1.2 nM ERK2, 16 μM Erktide, 120 μM ATP (measured Km), 15 minute pre-incubation; read-out: ERK2 Mass Spectrometry Enzyme IC50. Type of assay: biochemical. The procedure: (§1) All compounds or DMSO (dimethyl sulphoxide) for the ERK2 Mass Spectrometry and A375 phospho-p90RSK assays were dispensed from source plates containing compounds at 10 mM in 100% (v/v) DMSO or 100% DMSO, directly into assay plates using an Echo 555 Acoustic dispenser (Labcyte Inc™). Depending on the assay, two separate plate preparations were followed. In Workflow A, 10 mM compound stocks were diluted 1:100 using a fixed-tip 96-head Agilent VPrep liquid handler (Agilent Technologies, Santa Clara, Calif.) to give four intermediate dilutions (10 mM, 100 μM, 1 μM, 10 nM). In Workflow B, 10 mM compound stocks were diluted 1:10 using a Tecan Freedom Evo (Tecan Group Ltd., Switzerland), and then 1:100 using the Echo 555 and Labcyte LX to produce three intermediate dilutions across three Labcyte qualified source plates (1 mM, 10 μM, 100 nM). These intermediate dilution plates were then used by the Echo 555 to generate final assay-ready compound plates with a 12 point dose range (10, 3, 1, 0.25, 0.1, 0.03, 0.01, 0.0025, 0.001, 0.0003, 0.0001, 0.0000125 μM) in order to calculate compound IC50s, with a total DMSO concentration in the assay of 1%. For the ERK2 Mass Spectrometry assay Workflow B was used. For the A375 phospho-p90RSK cell assay, the intermediate 1:100 dilution plate described in Workflow A was used by the Echo to dispense compounds and DMSO directly into the cell plates with a 12 point dose range (30, 10, 3.125, 1.25, 0.3, 0.1, 0.03125, 0.0125, 0.003, 0.001, 0.0003125, 0.00003 μM) in order to calculate compound IC50's, with a total DMSO concentration in the assay of 0.3%.
ERK2 Rapidfire Mass Spectrometry Inhibition of Catalysis Assay
MEK U911-activated ERK2 protein was expressed and purified in-house. Enzyme and substrate solutions were made up in assay buffer consisting of 50 mM Tris (pH 7.5), 10 mM MgCl2, 0.1 mM EGTA (ethylene glycol tetraacetic acid), 10 mM DTT (dithiothreitol) and 0.01% (v/v) CHAPS (3-[(3-Cholamidopropyl)dimethylammonio]-1-propanesulfonate). 1.2 nM ERK2 protein was prepared in assay buffer and 10 μl was dispensed into each well of a polypropylene, 384-well plate (#781201, Greiner) containing test and reference control compounds. […] The reaction was allowed to progress for 20 minutes at room temperature before being quenched by the addition of 80 al 1% (v/v) formic acid. The assay plates were then run on the RapidFire Mass Spectrometry platform (Agilent) to measure substrate (unphosphorylated Erktide) and product (phosphorylated Erktide) levels. Data was analysed and IC50's (half maximal inhibitory concentration) were calculated using Genedata Screener® software.

The test system of assay [2] is phospho-p90RSK in A375 cell line. In words: A375 Phospho-p90RSK Cellular Assay. As to conditions: Homo sapiens, A375 cells, 2 hours incubation. Format: cell-based, human. The procedure:
as §1
A375 Phospho-p90RSK Cellular Assay
A375 cells were cultured in cell media composed of DMEM (Dulbecco's modified Eagle's medium), 10% (v/v) Foetal Calf Serum and 1% (v/v) L-Glutamine. After harvesting, cells were dispensed into black, 384-well Costar plates (#3712, Corning) to give 2400 cells per well in a total volume of 40 μl cell media, and were incubated overnight at 37° C., 90% relative humidity and 5% CO2 in a rotating incubator. Test compounds and reference controls were dosed directly into the cell plates using a Labcyte Echo 555 acoustic dispenser. The cell plates were then incubated for 2 hours at 37° C. before being fixed by the addition of 20 μl 12% formaldehyde in PBS/A (4% final concentration), followed by a 20 minute room temperature incubation, and then a 2× wash with 150 μl PBS/A (phosphate buffered saline containing albumin) using a BioTek ELx405 platewasher. Cells were permeabilised with 20 μl 0.1% Triton X-100 in PBS/A for 20 minutes at room temperature, and then washed 1× with 100 μl PBS/A. Primary phospho-p90RSK (Thr359) (D1E9) rabbit monoclonal antibody (#8753, Cell Signaling Technology) was diluted 1:1000 in assay buffer (0.05% (v/v) Tween, 5% (v/v) Foetal Calf Serum, in PBS/A), 20 μl added per well, and plates were incubated at 4° C. overnight. Cell plates were washed 2× with 200 μl PBS/T (phosphate buffered saline containing Tween-20), then 20 μl 1:500 dilution in assay buffer of Alexa Fluor® 647 goat anti-rabbit IgG secondary antibody (#A31573, Molecular Probes, Life Technologies), with a 1:5000 dilution of Hoechst 33342, was added per well. Following a 90 minute incubation at room temperature, plates were washed 2× with 200 μl PBS/T, and 40 μl PBS/A was added per well. Stained cell plates were covered with black lid seals, and then read on a Cellomics ArrayScan™ VTI imaging platform (Thermo Scientific), using an XF53 filter with 10× objective, with a LED light source set-up to analyse nuclear staining with Hoechst 33342 (405 nm) and secondary antibody staining of phospho-p90RSK (647 nm). Data was analysed and IC50's were calculated using Genedata Screener® software.

T1 sequence (P28482 whole entry): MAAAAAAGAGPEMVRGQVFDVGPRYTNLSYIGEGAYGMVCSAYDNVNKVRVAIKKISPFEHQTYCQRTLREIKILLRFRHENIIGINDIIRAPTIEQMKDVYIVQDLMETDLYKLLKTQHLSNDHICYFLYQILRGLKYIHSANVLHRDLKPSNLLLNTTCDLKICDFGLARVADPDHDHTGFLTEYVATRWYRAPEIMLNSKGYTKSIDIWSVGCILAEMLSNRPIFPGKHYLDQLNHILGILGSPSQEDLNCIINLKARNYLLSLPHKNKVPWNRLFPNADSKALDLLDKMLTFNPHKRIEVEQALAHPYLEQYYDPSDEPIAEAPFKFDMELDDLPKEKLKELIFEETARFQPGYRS

In the case of `COC[C@H]1Cn2cc(-c3nc(Nc4ccnn4C)ncc3C)nc2C(=O)N1Cc1cccc(C(F)F)n1` [Example 16, (R)-7-((6-(Difluoromethyl)pyridin-2-yl)methyl)-6-(methoxymethyl)-2-(5-methyl-2-((1-methyl-1H-pyrazol-5-yl)amino)pyrimidin-4-yl)-6,7-dihydroimidazo[1,2-a]pyrazin-8(5H)-one], the IC50 in assay [1] amounted to 1.1 nM; in assay [2] (A-375), 120 nM.

Take `COC[C@H]1Cn2cc(-c3nc(Nc4ccnn4C)ncc3C)nc2C(=O)N1Cc1cccc(Cl)c1` [Example 17, (R)-7-(3-Chlorobenzyl)-6-(methoxymethyl)-2-(5-methyl-2-((1-methyl-1H-pyrazol-5-yl)amino)pyrimidin-4-yl)-6,7-dihydroimidazo[1,2-a]pyrazin-8(5H)-one]: the IC50 in assay [1] turned out to be 0.9 nM; in assay [2] (A-375), 5.2 nM.

For `Cc1cnc(Nc2ccnn2C)nc1-c1cn2c(n1)C(=O)N(Cc1cccc(Cl)c1)[C@@H](C)C2` [Example 19, (S)-7-(3-Chlorobenzyl)-6-methyl-2-(5-methyl-2-((1-methyl-1H-pyrazol-5-yl)amino)pyrimidin-4-yl)-6,7-dihydroimidazo[1,2-a]pyrazin-8(5H)-one], the half-maximal inhibitory concentration (IC50) stood at 0.5 nM in assay [1] and 5.3 nM in assay [2] (A-375).

On to `Cc1cnc(Nc2ccnn2C)nc1-c1cn2c(n1)C(=O)N(Cc1ccc(F)c(F)c1)[C@@H](C)C2` [Example 20, (S)-7-(3,4-Difluorobenzyl)-6-methyl-2-(5-methyl-2-((1-methyl-1H-pyrazol-5-yl)amino)pyrimidin-4-yl)-6,7-dihydroimidazo[1,2-a]pyrazin-8(5H)-one], for which the IC50 was 0.4 nM in assay [1] and 38 nM in assay [2] (A-375, 2 h).

Turning to `Cc1cnc(Nc2ccnn2C)nc1-c1cn2c(n1)C(=O)N(Cc1cccc(C(F)F)c1)[C@@H](C)C2` [Example 21, (S)-7-(3-(Difluoromethyl)benzyl)-6-methyl-2-(5-methyl-2-((1-methyl-1H-pyrazol-5-yl)amino)pyrimidin-4-yl)-6,7-dihydroimidazo[1,2-a]pyrazin-8(5H)-one], the values for the half-inhibitory concentration (IC50) in assay [1] and in assay [2] (A-375) were 0.6 nM and 11 nM, respectively.

With `Cc1cnc(Nc2ccnn2C)nc1-c1cn2c(n1)C(=O)N(Cc1cc(F)cc(F)c1)[C@@H](C)C2` [Example 22, (S)-7-(3,5-Difluorobenzyl)-6-methyl-2-(5-methyl-2-((1-methyl-1H-pyrazol-5-L)amino)pyrimidin-4-yl)-6,7-dihydroimidazo[1,2-a]pyrazin-8(5H)-one], the IC50 amounted to 0.8 nM in assay [1] and 19 nM in assay [2] (A-375).

Take `COc1cccc(CN2C(=O)c3nc(-c4nc(Nc5ccnn5C)ncc4C)cn3C[C@@H]2C)c1` [Example 23, (S)-7-(3-Methoxybenzyl)-6-methyl-2-(5-methyl-2-((1-methyl-1H-pyrazol-5-yl)amino)pyrimidin-4-yl)-6,7-dihydroimidazo[1,2-a]pyrazin-8(5H)-one]: the values for the 50% inhibitory concentration (IC50) in assay [1] and in assay [2] (A-375) were 0.6 nM and 40 nM, respectively.

For `COc1cc(CN2C(=O)c3nc(-c4nc(Nc5ccnn5C)ncc4C)cn3C[C@@H]2C)ccc1F` [Example 24, (S)-7-(4-Fluoro-3-methoxybenzyl)-6-methyl-2-(5-methyl-2-((1-methyl-1H-pyrazol-5-yl)amino)pyrimidin-4-yl)-6,7-dihydroimidazo[1,2-a]pyrazin-8(5H)-one], the results for the IC50 in assay [1] and in assay [2] (A-375) were 0.5 nM and 84 nM, respectively.

For `Cc1cnc(Nc2ccnn2C)nc1-c1cn2c(n1)C(=O)N(Cc1cccc(C(F)F)n1)[C@@H](C)C2` [Example 25, (S)-7-((6-(Difluoromethyl)pyridin-2-yl)methyl)-6-methyl-2-(5-methyl-2-((1-methyl-1H-pyrazol-5-yl)amino)pyrimidin-4-yl)-6,7-dihydroimidazo[1,2-a]pyrazin-8(5H)-one], the values for the concentration for half-maximal inhibition (IC50) in assay [1] and in assay [2] (A-375) were 0.7 nM and 130 nM, respectively.

In the case of `Cc1cnc(Nc2ccnn2C)nc1-c1cn2c(n1)C(=O)N(Cc1ccnc(C(F)(F)F)n1)[C@@H](C)C2` [Example 26, (S)-6-methyl-2-(5-methyl-2-((1-methyl-1H-pyrazol-5-yl)amino)pyrimidin-4-yl)-7-((2-(trifluoromethyl)pyrimidin-4-yl)methyl)-6,7-dihydroimidazo[1,2-a]pyrazin-8(5H)-one], the 50% inhibitory concentration (IC50) in assay [1] was found to be 1.1 nM; in assay [2] (A-375) it was 200 nM.

In the case of `Cc1cnc(Nc2ccnn2C)nc1-c1cn2c(n1)C(=O)N(Cc1cccc(C(F)(F)F)n1)[C@@H](C)C2` [Example 27, (S)-6-Methyl-2-(5-methyl-2-((1-methyl-1H-pyrazol-5-yl)amino)pyrimidin-4-yl)-7-((6-(trifluoromethyl)pyridin-2-yl)methyl)-6,7-dihydroimidazo[1,2-a]pyrazin-8(5H)-one], the half-inhibitory concentration (IC50) in assay [1] turned out to be 0.8 nM; in assay [2] (A-375) it was 77 nM.

As for `Cc1cnc(Nc2ccnn2C)nc1-c1cn2c(n1)C(=O)N(Cc1cccc(OC(F)F)c1)[C@@H](C)C2` [Example 28, (S)-7-(3-(Difluoromethoxy)benzyl)-6-methyl-2-(5-methyl-2-((1-methyl-1H-pyrazol-5-yl)amino)pyrimidin-4-yl)-6,7-dihydroimidazo[1,2-a]pyrazin-8(5H)-one], the figures for the half-inhibitory concentration (IC50) in assay [1] and in assay [2] (A-375) were 0.5 nM and 110 nM, respectively.

In the case of `Cc1cnc(Nc2ccnn2C)nc1-c1cn2c(n1)C(=O)N(Cc1cc(C(F)(F)F)ccn1)[C@@H](C)C2` [Example 29, (S)-6-Methyl-2-(5-methyl-2-((1-methyl-1H-pyrazol-5-yl)amino)pyrimidin-4-yl)-7-((4-(trifluoromethyl)pyridin-2-yl)methyl)-6,7-dihydroimidazo[1,2-a]pyrazin-8(5H)-one], the figures for the concentration for half-maximal inhibition (IC50) in assay [1] and in assay [2] (A-375) were 0.9 nM and 130 nM, respectively.

For `Cc1cnc(Nc2ccnn2C)nc1-c1cn2c(n1)C(=O)N(Cc1ccnc(C(F)(F)F)c1)[C@@H](C)C2` [Example 30, (S)-6-Methyl-2-(5-methyl-2-((1-methyl-1H-pyrazol-5-yl)amino)pyrimidin-4-yl)-7-((2-(trifluoromethyl)pyridin-4-yl)methyl)-6,7-dihydroimidazo[1,2-a]pyrazin-8(5H)-one], the concentration for half-maximal inhibition (IC50) in assay [1] worked out at 0.7 nM; in assay [2] (A-375) it was 200 nM.

For `Cc1cnc(Nc2ccnn2C)nc1-c1cn2c(n1)C(=O)N(Cc1cc(C(F)F)ccn1)[C@@H](C)C2` [Example 31, (S)-7-((4-(Difluoromethyl)pyridin-2-yl)methyl)-6-methyl-2-(5-methyl-2-((1-methyl-1H-pyrazol-5-yl)amino)pyrimidin-4-yl)-6,7-dihydroimidazo[1,2-a]pyrazin-8(5H)-one], the IC50 is 0.8 nM in assay [1] and 140 nM in assay [2] (A-375).

(Values after US10202391B2, “Chemical compounds” (AstraZeneca AB, priority 2015, dated 2019).)
